“And” between values parts separate entries of the source, which are not always exact repeats. Equal entries are not always repeated. Inconclusive results and toxic doses are left out.
Tested on: BDF1 mice, P388 leukemia ip, median survival T/C
Experiment: NCI In Vivo Anticancer Drug Screen. Data for tumor model P388 Leukemia (intraperitoneal) in B6D2F1 (BDF1) mice
Conditions: endpoint: median survival time, higher = longer survival
Outline: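 Mice carrying the transplantable tumour receive compound or vehicle. Survival is followed in each arm, and the treated measure is divided by the vehicle measure.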

[1] = dose: 100.0 mg/kg/injection, schedule: Q01DX009 (ip), vehicle: Klucel (hydroxypropylcellulose) (HPC)
[2] = dose: 200.0 mg/kg/injection, schedule: Q01DX009 (ip), vehicle: Klucel (hydroxypropylcellulose) (HPC)
[3] = dose: 400.0 mg/kg/injection, schedule: Q01DX009 (ip), vehicle: Klucel (hydroxypropylcellulose) (HPC)
[4] = dose: 100.0 mg/kg/injection, schedule: Q04DX003 (ip), vehicle: saline with Tween-80
[5] = dose: 200.0 mg/kg/injection, schedule: Q01DX009 (ip), vehicle: saline with Tween-80
[6] = dose: 400.0 mg/kg/injection, schedule: Q01DX009 (ip), vehicle: saline with Tween-80
[7] = dose: 400.0 mg/kg/injection, schedule: Q04DX003 (ip), vehicle: saline with Tween-80
[8] = dose: 50.0 mg/kg/injection, schedule: Q01DX009 (ip), vehicle: Klucel (hydroxypropylcellulose) (HPC)
[9] = dose: 100.0 mg/kg/injection, schedule: Q04DX003 (ip), vehicle: Klucel (hydroxypropylcellulose) (HPC)
[10] = dose: 200.0 mg/kg/injection, schedule: Q04DX003 (ip), vehicle: Klucel (hydroxypropylcellulose) (HPC)
[11] = dose: 50.0 mg/kg/injection, schedule: Q01DX009 (ip), vehicle: saline with Tween-80
[12] = dose: 100.0 mg/kg/injection, schedule: Q01DX009 (ip), vehicle: saline with Tween-80
[13] = dose: 100.0 mg/kg/injection, schedule: Q01DX009 (ip), vehicle: saline
[14] = dose: 200.0 mg/kg/injection, schedule: Q01DX009 (ip), vehicle: saline
[15] = dose: 200.0 mg/kg/injection, schedule: Q04DX003 (ip), vehicle: saline with Tween-80
[16] = dose: 400.0 mg/kg/injection, schedule: Q04DX003 (ip), vehicle: Klucel (hydroxypropylcellulose) (HPC)
[17] = dose: 25.0 mg/kg/injection, schedule: Q01DX009 (ip), vehicle: Klucel (hydroxypropylcellulose) (HPC)
[18] = dose: 10.0 mg/kg/injection, schedule: Q04DX003 (ip), vehicle: saline
[19] = dose: 50.0 mg/kg/injection, schedule: Q04DX003 (ip), vehicle: saline
[20] = dose: 75.0 mg/kg/injection, schedule: Q04DX003 (ip), vehicle: saline

CCCOC(=O)c1ccc([N+](=O)[O-])cc1
T/C [1]: 95 % of control
T/C [2]: 100 % of control
T/C [3]: 100 % of control

CC[C@H](CC[C@@H](C)[C@H]1CC[C@H]2[C@@H]3CC[C@H]4C[C@@H](O)CC[C@]4(C)[C@H]3CC[C@]12C)C(C)C
T/C [4]: 100 % of control
T/C [5]: 95 % of control
T/C [6]: 100 % of control
T/C [7]: 86 % of control

[N-]=[N+]=CC(=O)NCC(=O)NN
T/C (dose: 50.0 mg/kg/injection, schedule: Q01DX010 (ip), vehicle: water): 120 % of control
T/C (dose: 200.0 mg/kg/injection, schedule: Q01DX010 (ip), vehicle: water): 166 % of control and 175 % of control
T/C (dose: 400.0 mg/kg/injection, schedule: Q01DX010 (ip), vehicle: saline): 181 % of control

C[C@]12CCC(=O)C=C1CC[C@@H]1C2=CC[C@@]2(C)[C@H]1CC[C@]2(C)O
T/C (dose: 0.78 mg/kg/injection, schedule: Q01DX009 (ip), vehicle: Klucel (hydroxypropylcellulose) (HPC)): 100 % of control
T/C (dose: 1.56 mg/kg/injection, schedule: Q01DX009 (ip), vehicle: Klucel (hydroxypropylcellulose) (HPC)): 90 % of control
T/C (dose: 3.12 mg/kg/injection, schedule: Q01DX009 (ip), vehicle: Klucel (hydroxypropylcellulose) (HPC)): 86 % of control
T/C [8]: 87 % of control
T/C [9]: 109 % of control
T/C [2]: 87 % of control
T/C [10]: 104 % of control

CC(=O)OC1=C2OC(=O)C3(C2C=CC=C1)C1C=CC=CC13 (stereo not drawn)
T/C [11]: 116 % of control
T/C [12]: 116 % of control
T/C [5]: 120 % of control

CCOc1ccc(Br)cc1/C=C/C(C)=O
T/C [13]: 109 % of control
T/C (dose: 100.0 mg/kg/injection, schedule: Q04DX003 (ip), vehicle: saline): 112 % of control
T/C [14]: 95 % of control
T/C (dose: 200.0 mg/kg/injection, schedule: Q04DX003 (ip), vehicle: saline): 95 % of control
T/C (dose: 400.0 mg/kg/injection, schedule: Q01DX009 (ip), vehicle: saline): 104 % of control
T/C (dose: 400.0 mg/kg/injection, schedule: Q04DX003 (ip), vehicle: saline): 100 % of control

Cc1ccc(NS(=O)(=O)c2ccc(Br)cc2)c(C)c1
T/C [4]: 100 % of control
T/C [15]: 100 % of control
T/C [7]: 104 % of control

[NH-]CC([NH-])=O.[NH-]CC([NH-])=O.[Ni]
T/C (dose: 5.0 mg/kg/injection, schedule: Q01DX009 (ip), vehicle: water): 105 % of control
T/C (dose: 10.0 mg/kg/injection, schedule: Q01DX009 (ip), vehicle: water): 105 % of control
T/C (dose: 12.5 mg/kg/injection, schedule: Q04DX003 (ip), vehicle: water): 95 % of control
T/C (dose: 25.0 mg/kg/injection, schedule: Q04DX003 (ip), vehicle: water): 109 % of control

Nc1nc(SCc2ccccc2Cl)c2ncn(C3OC(CO)C(O)C3O)c2n1 (stereo not drawn)
T/C [13]: 105 % of control
T/C [9]: 100 % of control
T/C [14]: 90 % of control
T/C [10]: 118 % of control
T/C [16]: 118 % of control

COC(=O)C1CN(c2ccccc2)N=C1C(C)=O (stereo not drawn)
T/C [4]: 89 % of control
T/C [15]: 86 % of control

Nc1cc(S(=O)(=O)c2ccc(O)c(N)c2)ccc1O
T/C [12]: 104 % of control
T/C [4]: 100 % of control
T/C [5]: 108 % of control
T/C [15]: 95 % of control
T/C [6]: 87 % of control
T/C [7]: 87 % of control

O=C(Nc1cccc(Cl)c1)N1c2ccccc2SC1c1ccco1 (stereo not drawn)
T/C [11]: 91 % of control
T/C [12]: 107 % of control
T/C [5]: 109 % of control

C[C@@H]1C[C@@]2(C)[C@@H](CC[C@@H]3[C@@H]2CC[C@]2(C)[C@@H](O)CC[C@@H]32)CC1=O
T/C (dose: 6.25 mg/kg/injection, schedule: Q01DX009 (ip), vehicle: Klucel (hydroxypropylcellulose) (HPC)): 109 % of control
T/C (dose: 12.5 mg/kg/injection, schedule: Q01DX009 (ip), vehicle: Klucel (hydroxypropylcellulose) (HPC)): 109 % of control
T/C [17]: 109 % of control

COC(=O)C1=COC(C)C(C=O)C1CC(=O)O (stereo not drawn)
T/C [18]: 113 % of control
T/C (dose: 22.0 mg/kg/injection, schedule: Q04DX003 (ip), vehicle: saline): 122 % of control
T/C (dose: 33.0 mg/kg/injection, schedule: Q04DX003 (ip), vehicle: saline): 120 % of control
T/C [19]: 172 % of control
T/C [20]: 95 % of control

Cc1ccc(S(=O)(=O)c2ccc(S(=O)(=O)c3ccc(C)cc3)c3c2no[n+]3[O-])cc1
T/C (dose: 15.0 mg/kg/injection, schedule: Q01DX009 (ip), vehicle: saline with Tween-80): 107 % of control
T/C (dose: 30.0 mg/kg/injection, schedule: Q01DX009 (ip), vehicle: saline with Tween-80): 112 % of control
T/C (dose: 60.0 mg/kg/injection, schedule: Q01DX009 (ip), vehicle: saline with Tween-80): 112 % of control

Cc1nnc2ncnn2c1N(C)c1ccccc1
T/C (dose: 50.0 mg/kg/injection, schedule: Q04DX003 (ip), vehicle: saline with Tween-80): 100 % of control
T/C [4]: 95 % of control
T/C [15]: 100 % of control

COc1cccc(CCNC(=O)CCN2C(=O)c3ccccc3C2=O)c1
T/C [12]: 95 % of control
T/C [5]: 109 % of control
T/C [6]: 100 % of control

CCS(=O)(=O)C(Br)CBr (stereo not drawn)
T/C [17]: 114 % of control
T/C [8]: 114 % of control
T/C [1]: 105 % of control and 107 % of control

COc1ccc(CC2c3cc(OC)c(OC)cc3CCN2C(=O)c2ccccc2)cc1OC (stereo not drawn)
T/C (dose: 50.0 mg/kg/injection, schedule: Q01DX005 (ip), vehicle: saline with Tween-80): 91 % of control
T/C (dose: 100.0 mg/kg/injection, schedule: Q01DX005 (ip), vehicle: saline with Tween-80): 91 % of control

Cc1ccc(CSc2ssc(=S)c2-c2ccccc2)cc1
T/C (dose: 100.0 mg/kg/injection, schedule: Q01DX001 (ip), vehicle: Klucel (hydroxypropylcellulose) (HPC)): 104 % of control
T/C [1]: 110 % of control
T/C (dose: 200.0 mg/kg/injection, schedule: Q01DX001 (ip), vehicle: Klucel (hydroxypropylcellulose) (HPC)): 104 % of control
T/C [2]: 110 % of control
T/C (dose: 400.0 mg/kg/injection, schedule: Q01DX001 (ip), vehicle: Klucel (hydroxypropylcellulose) (HPC)): 109 % of control
T/C [3]: 115 % of control

C[n+]1c(-c2ccccc2)c2cc(N)ccc2c2ccccc21
T/C (dose: 3.1 mg/kg/injection, schedule: Q04DX003 (ip), vehicle: saline): 110 % of control
T/C (dose: 6.6 mg/kg/injection, schedule: Q01DX009 (ip), vehicle: saline): 153 % of control
T/C (dose: 10.0 mg/kg/injection, schedule: Q01DX009 (ip), vehicle: saline): 165 % of control and 181 % of control
T/C [18]: 122 % of control

C/C(CCCCl)=N/N=C(N)N
T/C (dose: 7.03 mg/kg/injection, schedule: Q01DX001 (ip), vehicle: saline): 104 % of control
T/C (dose: 14.06 mg/kg/injection, schedule: Q01DX001 (ip), vehicle: saline): 100 % of control
T/C (dose: 18.75 mg/kg/injection, schedule: Q01DX009 (ip), vehicle: saline): 115 % of control
T/C (dose: 18.75 mg/kg/injection, schedule: Q04DX003 (ip), vehicle: saline): 109 % of control
T/C (dose: 37.5 mg/kg/injection, schedule: Q01DX009 (ip), vehicle: saline): 115 % of control
T/C (dose: 37.5 mg/kg/injection, schedule: Q04DX003 (ip), vehicle: saline): 100 % of control
T/C [19]: 122 % of control
T/C (dose: 75.0 mg/kg/injection, schedule: Q01DX009 (ip), vehicle: saline): 115 % of control
T/C [20]: 100 % of control

CCCCC/C(C=C(C#N)C#N)=C/c1ccccc1
T/C (dose: 25.0 mg/kg/injection, schedule: Q01DX009 (ip), vehicle: saline with Tween-80): 100 % of control
T/C [12]: 119 % of control

CCN(Cc1ccccc1)c1ccc(/C=C/c2ccnc3ccccc23)cc1
T/C [11]: 100 % of control
T/C [12]: 90 % of control
T/C [5]: 108 % of control

C=Cc1ccccc1-c1ccccc1C(=O)OC
T/C [15]: 87 % of control
T/C [7]: 105 % of control

O=C(c1ccccc1)c1c2ccccc2c(-c2ccccc2)c2ccccc12
T/C [1]: 100 % of control
T/C [9]: 91 % of control
T/C [2]: 100 % of control
T/C [10]: 87 % of control
T/C [3]: 111 % of control
T/C [16]: 95 % of control

Source: PubChem BioAssay AID328 (DTP/NCI, 2004)
